tested on: serine palmitoyltransferase (SPT) in SPTLC3 overexpressing HEK293 cells; assay: In vitro SPT activity with various acyl-CoA substrates (Example 1, FIG. 3); type: biochemical; conditions: acyl-CoA 50 μM; activity with palmitoyl-CoA defined as 100%
Procedure: FIG. 3 In vitro SPT activity with various acyl-CoA substrates (C12-CoA, C14-CoA, C16-CoA and C18:1-CoA) in control, SPTLC1, SPTLC2 and SPTLC3 overexpressing HEK293 cells. […] (For comparison the activity with palmitoyl-CoA is defined as 100%.)
All acyl-CoAs were used at the same concentration (50 μM).

Compound	SPT activity with the acyl-CoA substrate in SPTLC3 overexpressing cells compared with control, SPTLC1 and SPTLC2 cells
CCCCCCCC/C=C\CCCCCCCC(=O)SCCNC(=O)CCNC(=O)[C@H](O)C(C)(C)COP(=O)(O)OP(=O)(O)OC[C@H]1O[C@@H](n2cnc3c(N)ncnc32)[C@H](O)[C@@H]1OP(=O)(O)O [oleoyl-CoA]	comparable for all cell lines
CCCCCCCCCCCCCCCCCC(=O)SCCNC(=O)CCNC(=O)[C@H](O)C(C)(C)COP(=O)(O)OP(=O)(O)OC[C@H]1O[C@@H](n2cnc3c(N)ncnc32)[C@H](O)[C@@H]1OP(=O)(O)O [stearoyl-CoA]	comparable for all cell lines
CCCCCCCCCCCC(=O)SCCNC(=O)CCNC(=O)[C@H](O)C(C)(C)COP(=O)(O)OP(=O)(O)OC[C@H]1O[C@@H](n2cnc3c(N)ncnc32)[C@H](O)[C@@H]1OP(=O)(O)O [lauryl-CoA]	significantly higher activity

From patent US20130011870A1, “Method For Assaying Diseases Characterized By Dyslipidemia” (priority 2010, published 2013)
